In publication PMC9573353 (Molecules, 2022):
Like-named read-outs stand apart in the source and are kept apart here.

Legend:
[1] = biological target: butyrylcholinesterase (BChE) (Equus caballus, UniProt P81908); assay: biochemical; assay type: biochemical; details: mean ± standard deviation, triplicate
[2] = biological target: Acetylcholinesterase (AChE) (Electrophorus electricus, UniProt O42275); assay: biochemical; assay type: biochemical; details: mean ± standard deviation, triplicate; '-' = no inhibitory activity
[3] = previously tested; read-out: DPPH IC50; cited from earlier work
[4] = Fe3+ complex formation constants by spectrophotometric titration (PSEQUAD); assay type: physicochemical; details: for Apparent formation constant lgK'FeL, Fe^3+ + HL ⇌ FeL^2+ + H^+: 1:1 complex; for Formation constant lgKFeL, Fe^3+ + L^− ⇌ FeL^2+: sum of apparent formation constant and protonation constant
Experimental: Since Fe^3+ ions strongly hydrolyze, acidic solutions were applied for the spectrophotometric titrations to determine the complex formation constants. Both types of titrations were carried out: increasing the iron(III) concentration at constant ligand concentration and increasing ligand concentration at constant CFe(III).
(§1) The third one in this equilibrium system must be a complex between the previous two species. Detailed fitting studies by application of the PSEQUAD program confirmed the existence of a complex with a 1:1 (FeL^2+) composition. Furthermore, the apparent formation constant of these species (for the reaction Fe^3+ + HL ⇌ FeL^2+ + H^+) and the individual spectrum of the species could be estimated by this procedure. […] The apparent formation constant determined from this spectrum series and that regarding the titration with the ligand was lgK’FeL = 4.75 ± 0.10. Using this apparent formation constant, the molar fractions of the free Fe^3+ and the 1:1 complex could be calculated as functions of the (protonated) ligand concentration (pHL), as shown by the inset of Figure 12a. Since the spectrophotometric titration was carried out in an acidic solution, in order to estimate the formation constant for the Fe^3+ + L^− ⇌ FeL^2+ reaction, the protonation constant of the deprotonated ligand (L^−) was also determined (by potentiometric titration, starting from the fully deprotonated form at pH = 10, Figure 13), lgK1 = 7.81 ± 0.15. The sum of the apparent formation constant and the protonation constant gives the equilibrium constant regarding the reaction above (lgKFeL = 12.56 ± 0.15).
(§2) The protonation and complex formation constants were determined similarly for the other three compounds. The corresponding figures can be found in the Supplementary Materials (Figures S67 and S68 for cis-2, Figures S69 and S70 for cis-4, and Figures S71 and S72 for trans-1). In the case of trans-1, two protonation steps were observed due to the two OH groups. For calculating the formation constant, lgK2 was taken into account, corresponding to the proton in the OH group on the pyranone ring. This can be exchanged by the Fe^3+ ion easier than the other proton in the phenolic moiety.
Two titration series were used to determine the stability constants of equilibrium systems containing Fe^3+ and ligand. The iron(III) content was increased at constant ligand content, the ligand concentration was increased at constant Fe(III) content, and the spectral changes were recorded with a Specord S600 spectrophotometer (Analytic Jena GmbH, Jena, Germany) in the 190–900 nm wavelength range. […] The two series were evaluated together using PSEQUAD software in the 210–430 nm range.

[5] = Protonation constants by potentiometric titration with spectrophotometric detection; assay type: physicochemical; details: for Protonation constant lgK1: titration from pH 10, for trans-1 first of two protonation steps
Excerpt: as §1, §2
A 0.01–0.01 M phosphate–borate–acetate buffer solution was used for potentiometric titration. A 50 cm^3 beaker was filled with 25 cm^3 of buffer solution containing the appropriate amount of ligand, and the pH was adjusted to 10.0 by adding 2 M NaOH solution. The pH was determined using a Consort C3010 multi-parameter analyzer (Consort bvba, Turnhout, Belgium) equipped with a combined glass electrode. The solution was circulated with an IKA PA-SF (IKA Labortechnik, Staufen, Germany) peristaltic pump through a Hellma (176.000-QS 10 mm) flow through the cuvette. Titration was carried out with 6 M H2SO4 solution. The spectra were recorded with a Specord S600 spectrophotometer after pH stabilization.

[6] = DPPH radical scavenging assay; details: 30 min at 25 °C; '-' = did not capture the radical
Experimental: Antioxidant activity of the tested compounds was measured in terms of hydrogen donating or radical scavenging ability using the stable radical 2,2′-diphenyl-1-picrylhydrazyl (DPPH). The 50 μL of various concentrations of tested solutions (5 μM–1000 μM) were placed in a cuvette, 1 mL of ethanolic solution of DPPH was added, and the final DPPH concentration was kept constant (c = 8 × 10^−4 M). The mixture was incubated for 30 min at 25 °C. […] All determinations were performed in triplicate. The concentrations of tested compounds were expressed as final concentrations. Inhibition of DPPH expressed in percentage was calculated according to the equation:(2) Inhibition (%)=AC(0)−AC(t)/AC(0)·100 where AC(0) is the absorbance of the control at t = 0 min, and AC(t) is the absorbance of the antioxidant at t = 30 min. Data were used to calculate the IC50 value by a nonlinear fit of compound concentration values vs. inhibition percentage.

Sequence of Acetylcholinesterase (AChE) (O42275 24-633): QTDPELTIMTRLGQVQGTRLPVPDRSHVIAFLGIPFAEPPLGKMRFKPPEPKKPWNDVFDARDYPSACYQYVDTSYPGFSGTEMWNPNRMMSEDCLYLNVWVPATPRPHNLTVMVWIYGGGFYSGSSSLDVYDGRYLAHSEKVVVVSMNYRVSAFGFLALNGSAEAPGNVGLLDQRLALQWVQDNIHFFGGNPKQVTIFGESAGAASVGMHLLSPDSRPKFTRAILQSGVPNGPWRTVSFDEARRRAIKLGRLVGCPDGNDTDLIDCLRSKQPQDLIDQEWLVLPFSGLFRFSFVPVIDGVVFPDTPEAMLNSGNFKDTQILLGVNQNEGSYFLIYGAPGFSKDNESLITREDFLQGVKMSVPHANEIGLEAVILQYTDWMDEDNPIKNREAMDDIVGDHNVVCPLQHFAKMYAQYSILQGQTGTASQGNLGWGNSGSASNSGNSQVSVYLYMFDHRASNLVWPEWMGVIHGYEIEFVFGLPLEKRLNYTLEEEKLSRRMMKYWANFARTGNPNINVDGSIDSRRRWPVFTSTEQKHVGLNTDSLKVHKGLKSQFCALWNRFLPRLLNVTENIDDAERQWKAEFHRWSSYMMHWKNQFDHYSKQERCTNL
Sequence of butyrylcholinesterase (BChE) (P81908 whole entry): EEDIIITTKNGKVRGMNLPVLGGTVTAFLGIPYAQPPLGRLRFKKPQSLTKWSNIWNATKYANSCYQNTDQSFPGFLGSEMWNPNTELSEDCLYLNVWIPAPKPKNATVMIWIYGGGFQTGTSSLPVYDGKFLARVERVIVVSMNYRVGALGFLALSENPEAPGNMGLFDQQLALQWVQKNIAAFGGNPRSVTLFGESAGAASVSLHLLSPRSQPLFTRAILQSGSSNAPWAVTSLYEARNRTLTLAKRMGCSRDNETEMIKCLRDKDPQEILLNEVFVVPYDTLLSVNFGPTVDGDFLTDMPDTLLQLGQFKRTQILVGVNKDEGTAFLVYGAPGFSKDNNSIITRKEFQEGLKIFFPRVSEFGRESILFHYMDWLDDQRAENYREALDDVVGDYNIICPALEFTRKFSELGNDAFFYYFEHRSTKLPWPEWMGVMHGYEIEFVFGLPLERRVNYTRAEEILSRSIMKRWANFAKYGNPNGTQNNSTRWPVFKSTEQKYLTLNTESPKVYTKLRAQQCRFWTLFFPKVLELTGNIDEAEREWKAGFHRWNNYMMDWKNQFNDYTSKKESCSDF

SMILES	IC50 [1]	IC50 [2]	IC50 [3]	Apparent formation constant lgK'FeL, Fe^3+ + HL ⇌ FeL^2+ + H^+ ([4]; acidic solution)	Protonation constant lgK1 [5]	IC50 [6]	Formation constant lgKFeL, Fe^3+ + L^− ⇌ FeL^2+ [4]	BChE IC50 [1]	DPPH IC50 [6]	AChE IC50 [2]	Formation constant lgKFeHL, Fe^3+ + H2L ⇌ FeHL^2+ + H^+ ([4]; acidic solution, footnote a)	Formation constant lgKFeHL, Fe^3+ + HL^− ⇌ FeHL^2+ ([4]; calculated with lgK2, footnote b)	Protonation constant lgK2 ([5]; trans-1: proton of the OH group on the pyranone ring)
Oc1ccc(/C=C/c2cccs2)c(O)c1 [III]	5.3 ± 1.8 µM	46.6 ± 8.3 µM	26.8 µM	–	–	–	–	–	–	–	–	–	–
Oc1ccccc1/C=C/c1cccs1 [II]	4.6 ± 0.1 µM	15.7 ± 1 µM	159 µM	–	–	–	–	–	–	–	–	–	–
O=c1cc(/C=C\c2ccccc2C(F)(F)F)occ1O [cis-2, (Z)-5-hydroxy-2-(2-(trifluoromethyl)styryl)-4H-pyran-4-one]	458 ± 30.2 µM	> 1000 µM	–	4.38 ± 0.20	7.95 ± 0.10	> 1000 µM	–	–	–	–	–	–	–
O=c1cc(/C=C\c2ccc(Cl)cc2Cl)occ1O [cis-4, (Z)-2-(2,4-dichlorostyryl)-5-hydroxy-4H-pyran-4-one]	638 ± 25.8 µM	1000 ± 10.1 µM	–	4.16 ± 0.10	7.99 ± 0.15	> 1000 µM	12.15 ± 0.15	–	–	–	–	–	–
O=c1cc(C=Cc2cccs2)occ1O [compound 7, 5-hydroxy-2-(2-(thiophen-2-yl)vinyl)-4H-pyran-4-one]	–	–	–	–	–	–	–	completely missed any tested bioactivity	completely missed any tested bioactivity	completely missed any tested bioactivity	–	–	–
O=c1cc(/C=C/c2ccccc2O)occ1O [trans-1, (E)-5-hydroxy-2-(2-hydroxystyryl)-4H-pyran-4-one]	601 ± 34.5 µM	> 1000 µM	–	–	8.9 ± 0.20	251 ± 45.6 µM	–	–	–	–	4.38 ± 0.20 ^a	11.6 ± 0.2 ^b	7.25 ± 0.20
O=c1cc(/C=C/c2ccsc2)occ1O [trans-6, (E)-5-hydroxy-2-(2-(thiophen-3-yl)vinyl)-4H-pyran-4-one]	426 ± 41.8 µM	> 1000 µM	–	4.75 ± 0.10	7.81 ± 0.15	> 1000 µM	12.56 ± 0.15	–	–	–	–	–	–
